Measurements: publication PMC4057235, “Development and Evaluation of Small Peptidomimetic Ligands to Protease-Activated Receptor-2 (PAR2) through the Use of Lipid Tethering” (PLoS ONE, 2014)
Values belong to the compound of their own block, whether it stands above or below them.

Key:
PAR2 [1] = target: T1, PAR2 (Homo sapiens, UniProt P55085); test: Ca2+ desensitization assay in 16HBE14o- cells with 2at-LIGRL-NH2; format: cell-based; conditions: compound at its activating concentration, ATP 5 µM
T1 construct: 16HBE14o- cells on E-plates in growth medium; endogenous in cells; host or cells: 16HBE14o- cells
T1 sequence (P55085 26-397): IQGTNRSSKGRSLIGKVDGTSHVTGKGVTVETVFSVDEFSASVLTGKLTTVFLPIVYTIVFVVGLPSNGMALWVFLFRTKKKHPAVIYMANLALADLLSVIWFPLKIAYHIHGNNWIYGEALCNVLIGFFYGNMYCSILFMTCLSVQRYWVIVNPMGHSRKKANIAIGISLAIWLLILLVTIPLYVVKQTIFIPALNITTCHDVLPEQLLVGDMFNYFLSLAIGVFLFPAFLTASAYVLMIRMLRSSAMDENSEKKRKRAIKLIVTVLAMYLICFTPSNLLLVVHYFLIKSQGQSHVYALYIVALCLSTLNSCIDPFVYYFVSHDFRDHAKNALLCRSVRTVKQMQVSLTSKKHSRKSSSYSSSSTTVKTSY
Experimental: 16HBE14o- cells or CHO cells were loaded with fura 2-acetomethoxyl ester (CalBiochem or Molecular Probes) for 30 min at room temperature. Cells were washed with HBSS and allowed to sit for at least 20 min prior to digital imaging. For activation and desensitization assay experiments using 16HBE14o- cells, [Ca^2+]i was measured as previously described. Experiments consisted of 20 sec of recording of cells in HBSS to determine resting [Ca^2+]i, followed by a 10 sec wash to introduce ligand and up to 10 min of recording for ligand washes required for desensitization experiments. Briefly, fura-2 fluorescence was observed on an Olympus IX70 microscope with a 40X oil immersion objective after alternating excitation between 340 and 380 nm by a 75 W Xenon lamp linked to a Delta Ram V illuminator (PTI) and a gel optic line. Intracellular Ca^2+ concentration ([Ca^2+]i) for each individual cell in the field of view was calculated by ratiometric analysis of fura-2 fluorescence using equations originally published in [31]. Individual ratios were calculated every sec throughout the experiments. […] Percent activation graphs are determined from 3–6 experiments for each ligand concentration. […] Ca^2+ imaging of CHO cells was similar; each ligand concentration tested included at least 3 experiments and a minimum of 200 cells analyzed during each experiment. […]

MrgprC11 [2] = target: T2, MrgprC11 (Mus musculus, UniProt Q8CIP3); set-up: method as in PMID 21775281; conditions: cited from earlier work
T2 construct: An MrgprC11 cDNA in pcDNA3.1 vector was transfected into CHO cells; expressed in transfected cells; host or cells: CHO cells, transient transfection with Lipofectamine 2000
T2 sequence (Q8CIP3 1-322): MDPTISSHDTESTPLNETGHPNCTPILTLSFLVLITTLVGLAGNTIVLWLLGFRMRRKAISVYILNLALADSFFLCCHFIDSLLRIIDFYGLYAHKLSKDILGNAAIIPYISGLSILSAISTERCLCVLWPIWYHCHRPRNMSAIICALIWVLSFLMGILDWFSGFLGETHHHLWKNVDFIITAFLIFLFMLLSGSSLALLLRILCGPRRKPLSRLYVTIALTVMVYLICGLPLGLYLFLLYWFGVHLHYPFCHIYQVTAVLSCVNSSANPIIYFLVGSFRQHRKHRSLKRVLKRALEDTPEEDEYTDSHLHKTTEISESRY

[3] = set-up: method as in PMID 20873792; conditions: at high concentrations (100 µM); cited from earlier work
MrgprC11 [4] = target: T2, MrgprC11; test: Ca2+ response in MrgprC11 transfected CHO cells; format: cell-based
Experimental: CHO cells were cultured in DMEM supplemented with 10% FBS and 1% penicillin and streptomycin at 37°C in a 5% CO2 atmosphere. One day before transfection, CHO cells were plated in a 60 mm cell culture dish at a concentration of 1×10^5 cells/cm^2 and grown without antibiotics. An MrgprC11 cDNA in pcDNA3.1 vector was transfected into CHO cells using Lipofectamine™ 2000 (Invitrogen) prior to transfer to coverslips for experiments. Coverslips were coated with 0.1 mg/ml poly-D-lysine (from 2 mg/ml stock) and incubated for 1 hr at room temperature, after which the coating solution was removed and the coverslips were washed twice with double distilled water. CHO cells were seeded on coverslips at a concentration of 1×10^5 cells/cm^2 6 hr after transfection. Transfected cells were incubated for 24 hr prior to Ca^2+ imaging.
16HBE14o- cells or CHO cells were loaded with fura 2-acetomethoxyl ester (CalBiochem or Molecular Probes) for 30 min at room temperature. Cells were washed with HBSS and allowed to sit for at least 20 min prior to digital imaging. For activation and desensitization assay experiments using 16HBE14o- cells, [Ca^2+]i was measured as previously described. Experiments consisted of 20 sec of recording of cells in HBSS to determine resting [Ca^2+]i, followed by a 10 sec wash to introduce ligand and up to 10 min of recording for ligand washes required for desensitization experiments. Briefly, fura-2 fluorescence was observed on an Olympus IX70 microscope with a 40X oil immersion objective after alternating excitation between 340 and 380 nm by a 75 W Xenon lamp linked to a Delta Ram V illuminator (PTI) and a gel optic line. Intracellular Ca^2+ concentration ([Ca^2+]i) for each individual cell in the field of view was calculated by ratiometric analysis of fura-2 fluorescence using equations originally published in [31]. Individual ratios were calculated every sec throughout the experiments. [Ca^2+]i traces over time are averaged [Ca^2+]i of all cells within a field of view (80–120) and are representative of at least 3 experiments. Cells were considered activated by the ligand if their resting [Ca^2+]i was increased above a 200 nM threshold, a 2–4 fold increase above typical resting values. Percent activation graphs are determined from 3–6 experiments for each ligand concentration. Time to threshold in individual cells represent between 200–400 cells from at least 3 experiments at each ligand concentration. Ca^2+ imaging of CHO cells was similar; each ligand concentration tested included at least 3 experiments and a minimum of 200 cells analyzed during each experiment.

PAR2 [5] = target: T1, PAR2; set-up: method as in PMID 21467041; conditions: 16HBE14o- cells; read-out: RTCA EC50; cited from earlier work

Compound: Nc1ncnc2c1ncn2[C@@H]1O[C@H](COP(=O)(O)OP(=O)(O)OP(=O)(O)O)[C@@H](O)[C@H]1O [ATP]
Ca2+ response after PAR2 desensitization with 50 µM 2at-LIGRL-NH2 (PAR2 [1]): remained an effective agonist

Compound: SLIGRL-NH2 (H-SLIGRL-NH2)
EC50 (MrgprC11 [2]; read-out: MrgprC11 activation EC50): 10 µM

Compound: CCC(C)C(NC(=O)C(CC1CCCCC1)NC(=O)c1ccno1)C(N)=O (stereo not drawn) [Compound 5io-Cha-I-NH2]
solubility [3]: lack of solubility

Ca2+ response (% of cells) (MrgprC11 [4]; 1 µM): no response
Ca2+ response (% of cells) (MrgprC11 [4]; 10 µM): 10%
Compound: 2at-LIGRL-NH2 [reference compound]
EC50 (PAR2 [5]): 0.31 µM
Ca2+ response after PAR2 desensitization with 50 µM 2at-LIGRL-NH2 (PAR2 [1]): did not result in an increase of [Ca^2+]i

Compound: 6-aminonicotinyl-LIGRL-NH2
EC50 (PAR2 [5]): 0.43 µM

Compound: SLIGR-NH2
MrgprC11 signaling (MrgprC11 [2]): lost MrgprC11 signaling capacity
